Holding throughout (format): biochemical
For test [1], the target named is Recombinant human FGFR1 (Homo sapiens, UniProt P11362). Nature of the test: Transcreener Kinase Assay of FGFR1. The settings on record: read-out: FGFR1 (FP) IC50. The protocol:
Transcreener Kinase Assay of FGFR1
(§1) Prepare Solution • Compounds were solved in DMSO and were diluted with assay buffer to 5 folds of final concentration keeping the DMSO concentration at 5%. Further dilution are needed to make final concentrations are at 1, 0.33, 0.11, 0.037, 0.012, 0.004, 0.0014, 0.0005 μM; (the final concentration of DMSO is 1%). • Enzyme/Substrate stock Preparation: Recombinant human FGFR1 and Poly E4Y are both diluted in assay buffer.
Enzymatic Reaction • In a 96-well plate, Add 5 μL of compound or control. (positive control: 5 μL of 5% DMSO; negative control: 5 μL of 500 mM EDTA) into desired wells; • Add 10 μL of Enzyme/Substrate stock into each well; • Add 10 μL of ATP Diluents to initiate the enzyme reaction and votex the plate immediately on a plate shaker; • For the wells to make standard curve, add 5 μL of 5% DMSO, 10 μL of assay buffer and 10 μL of ATP standard curve stock. • Incubate the plate for 45 min at 28[…] on a plate shaker in a low speed.
Excitation wavelength: 610 nm, Emission wavelength: 670 nm.
(§2) • [ADP] in Compound well represents the ADP concentration in compound well. • [ADP] in Positive control well represents the ADP concentration in 5% DMSO well • Conversion of mP value to ADP concentration is calculated based on the formula which determined by standard curve. And mP value is measured by following the instruction provided by BellBrook Labs. (www.bellbrooklabs.com). 6. IC50: calculated using XL-Fit 2.0 software.

Test [2] deals with Recombinant human FGFR2 (Homo sapiens, UniProt P21802). The test can be described thus: Transcreener Kinase Assay of FGFR2. The note with it: read-out: FGFR2 (FP) IC50. Here is the method:
Transcreener Kinase Assay of FGFR2
as §1, with “•” for “Prepare Solution •”, “FGFR2” for “FGFR1”, “buffer. The final concentration is 0.3 ng/μL for FGFR2 and 62.5 ng/μL for Poly E4Y. The mixture is being kept in ice before use; • Prepare ATP Diluents, 10 mM ATP is diluted in assay buffer, the final concentration is 25 μM; • Prepare ADP Diluents: diluted ADP (500 μM) in assay buffer, the final concentration is 25 μM; • Prepare ATP standard curve stock as following:” for “buffer.”
• In a 96-well plate, Add 5 μL of compound or control. (positive control: 5 μL of 5% DMSO; negative control: 5 μL of 500 mM EDTA) into desired wells; • Add 10 μL of Enzyme/Substrate stock into each well; • Add 10 μL of ATP Diluents to initiate the enzyme reaction and votex the plate immediately on a plate shaker; • For the wells to make standard curve, add 5 μL of 5% DMSO, 10 μL of assay buffer and 10 μL of ATP standard curve stock. • Incubate the plate for 45 min at 28[…] on a plate shaker in a low speed.
• Detection Mix Preparation: The mixture is made by dilution with MilliQ water; as following: ADP Alexa633 tracer (1:100), ADP antibody (1:158), and stop & detect buffer (1:10); • Tracer Only control Preparation: The mixture is made by dilution with MilliQ water; as following: ADP Alexa633 tracer (1:100), and stop & detect buffer (1:10) • No Tracer control Preparation: stop & detect buffer is diluted with MilliQ water; by 10 fold. • Add 25 μL of detection mix, Tracer Only control and No Tracer control into corresponding wells, respectively; • Incubate at 28 °C for 1 h, on a plate shaker in a low speed; • Measure florescence polarization (FP) on TECAN F500. Excitation wavelength: 610 nm, Emission wavelength: 670 nm.
as §2

In test [3] the target is FGFR3 kinase (Homo sapiens, UniProt P22607). Nature of the test: Z-Lyte Kinase Assay of FGFR3. Here is the method:
Z-Lyte Kinase Assay of FGFR3
The final concentrations are 1, 0.33, 0.11, 0.037, 0.012, 0.004, 0.0014, 0.00046 μM, and the final concentration of DMSO is 2%. • 3) Kinase/Peptide Mixture (P/K solution): Prepare Kinase/Peptide Mixture by diluting the kinase to 0.7 μg/ml and the Z-LYTE™ Tyr 4 peptide to 4 μM in 1.33× Kinase Buffer. Mix gently by pipetting. • 4) Phospho-peptide Solution (PP solution): Add 0.4 μl of Z-LYTE™ Tyr 4 Phospho-peptide to 99.6 μl of 1.33× Kinase Buffer. • 5) ATP Solution: Prepare ATP Solution by diluting the 10 mM of ATP in 1.33× Kinase Buffer to 300 uM. • 6) Development Solution: Dilute Development Reagent B with Development Buffer as 1:128.
Shake the plate for 30 Sec and centrifuge (1500 rpm, 1 min) • Seal the plate to protect from the light and incubate the plate for 1 hour at RT (25-30[…]) • 2) Development reaction • Add 5 μl of the Development solution to all wells • Shake the plate for 30 Sec and centrifuge (1500 rpm, 1 min) • Seal the plate to protect from the light and incubate the plate for 1 hour at RT (25-30[…]) • 3) Stop and read • Add 5 μl of the Stop reagent to all wells • Shake the plate for 30 Sec and centrifuge (1500 rpm, 1 min) • Measure the value of Coumarin (Ex400 nm, Em445 nm) and fluorescein (Ex400 nm, Em520 nm), respectively.
Inhibition rate(IR)=1−%Photest Cpd/%PhoC2
• determined with add-in software for Microsoft Excel, XLfit™ (version 2.0) from ID Business Solutions (Guildford, UK)

pIC50: −log10 of the molar value.

What is called pIC50 is −log10 of the IC50, conventionally taken in molar units.

FGFR3 kinase, sequence (P22607 23-806): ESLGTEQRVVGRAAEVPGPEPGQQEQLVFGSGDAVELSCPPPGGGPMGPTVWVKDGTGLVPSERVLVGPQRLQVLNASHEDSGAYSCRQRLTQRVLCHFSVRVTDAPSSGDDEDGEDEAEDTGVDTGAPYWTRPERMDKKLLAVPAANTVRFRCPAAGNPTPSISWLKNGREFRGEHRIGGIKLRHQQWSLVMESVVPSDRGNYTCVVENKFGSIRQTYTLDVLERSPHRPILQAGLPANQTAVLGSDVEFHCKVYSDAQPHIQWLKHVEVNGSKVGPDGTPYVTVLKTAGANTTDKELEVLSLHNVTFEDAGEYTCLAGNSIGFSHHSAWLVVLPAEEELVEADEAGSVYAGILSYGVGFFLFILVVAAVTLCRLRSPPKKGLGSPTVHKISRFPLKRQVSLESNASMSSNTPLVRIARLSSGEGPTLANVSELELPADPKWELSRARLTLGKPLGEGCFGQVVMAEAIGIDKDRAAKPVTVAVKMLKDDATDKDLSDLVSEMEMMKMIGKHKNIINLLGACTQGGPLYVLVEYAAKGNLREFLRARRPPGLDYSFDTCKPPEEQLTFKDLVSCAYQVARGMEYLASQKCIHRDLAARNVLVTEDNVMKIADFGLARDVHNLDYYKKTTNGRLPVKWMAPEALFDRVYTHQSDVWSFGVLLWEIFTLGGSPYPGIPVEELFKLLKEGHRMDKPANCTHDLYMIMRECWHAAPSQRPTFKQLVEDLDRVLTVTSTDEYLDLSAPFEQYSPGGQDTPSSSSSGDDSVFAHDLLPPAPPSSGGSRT
Recombinant human FGFR2, sequence (P21802 22-821): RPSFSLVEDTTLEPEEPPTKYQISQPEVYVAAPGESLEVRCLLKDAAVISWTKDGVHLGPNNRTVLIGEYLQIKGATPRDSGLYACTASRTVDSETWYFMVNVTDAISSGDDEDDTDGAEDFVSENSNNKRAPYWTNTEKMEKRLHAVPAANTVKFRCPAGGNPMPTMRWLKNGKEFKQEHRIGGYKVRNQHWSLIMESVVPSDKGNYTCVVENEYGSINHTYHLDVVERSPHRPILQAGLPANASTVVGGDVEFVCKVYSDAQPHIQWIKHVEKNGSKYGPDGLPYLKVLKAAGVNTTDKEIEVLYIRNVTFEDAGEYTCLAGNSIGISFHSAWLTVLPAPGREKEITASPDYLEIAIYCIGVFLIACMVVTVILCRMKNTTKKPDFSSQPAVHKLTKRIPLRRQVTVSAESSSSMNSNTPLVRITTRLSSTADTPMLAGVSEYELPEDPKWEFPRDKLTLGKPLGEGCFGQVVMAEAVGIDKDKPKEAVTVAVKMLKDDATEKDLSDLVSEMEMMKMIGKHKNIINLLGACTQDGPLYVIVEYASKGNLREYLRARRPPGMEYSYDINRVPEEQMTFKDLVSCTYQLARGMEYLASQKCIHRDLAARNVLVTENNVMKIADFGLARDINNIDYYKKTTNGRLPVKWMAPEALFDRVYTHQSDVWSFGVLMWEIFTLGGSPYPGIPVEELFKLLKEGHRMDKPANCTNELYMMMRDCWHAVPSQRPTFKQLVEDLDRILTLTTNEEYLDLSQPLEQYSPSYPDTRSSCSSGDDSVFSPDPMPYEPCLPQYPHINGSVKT
Recombinant human FGFR1, sequence (P11362 22-822): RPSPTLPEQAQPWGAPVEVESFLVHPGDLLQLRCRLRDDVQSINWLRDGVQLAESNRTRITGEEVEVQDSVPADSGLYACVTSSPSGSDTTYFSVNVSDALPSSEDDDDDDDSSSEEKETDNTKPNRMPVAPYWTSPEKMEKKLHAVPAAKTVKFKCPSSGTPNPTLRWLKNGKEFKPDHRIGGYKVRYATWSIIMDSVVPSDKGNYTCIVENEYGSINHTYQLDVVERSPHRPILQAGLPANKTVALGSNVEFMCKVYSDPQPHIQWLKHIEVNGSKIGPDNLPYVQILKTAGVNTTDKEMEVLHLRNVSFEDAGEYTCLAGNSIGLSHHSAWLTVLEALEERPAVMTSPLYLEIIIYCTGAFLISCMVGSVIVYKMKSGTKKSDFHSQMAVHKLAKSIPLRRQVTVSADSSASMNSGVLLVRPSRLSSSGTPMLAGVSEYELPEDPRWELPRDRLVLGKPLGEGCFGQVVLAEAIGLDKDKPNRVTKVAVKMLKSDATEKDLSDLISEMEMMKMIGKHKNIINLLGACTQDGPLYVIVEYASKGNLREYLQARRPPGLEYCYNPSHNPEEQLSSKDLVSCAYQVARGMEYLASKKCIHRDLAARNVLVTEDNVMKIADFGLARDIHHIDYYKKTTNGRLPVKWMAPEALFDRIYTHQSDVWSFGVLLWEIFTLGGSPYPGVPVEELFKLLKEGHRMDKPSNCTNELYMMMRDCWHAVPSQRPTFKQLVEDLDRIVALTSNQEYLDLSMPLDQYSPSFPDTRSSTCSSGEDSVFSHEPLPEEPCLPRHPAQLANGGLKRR

On to `CNC(=O)c1cc(C#Cc2cnc(Nc3ccc(N4C[C@@H](C)N[C@@H](C)C4)cc3)nc2)c(Cl)c(OC)c1` [Compound 222, 4-chloro-3-((2-((4-((3S,5R)-3,5-dimethylpiperazin-1-yl)phenyl)amino)pyrimidin-5-yl)ethynyl)-5-methoxy-N-methylbenzamide], for which the pIC50 in test [1] is 7.66; in test [2], 8.10; in test [3], 7.57.
On the same counts, the results for `CNC(=O)c1cc(CCc2cnc(Nc3cnn(C4CCNCC4)c3)nc2)c(Cl)c(OC)c1` [Compound 158, 4-chloro-3-methoxy-N-methyl-5-(2-(2-(1-(piperidin-4-yl)-1H-pyrazol-4-ylamino)pyrimidin-5-yl)ethyl)benzamide] are 8.10, 8.10 and 8.22.
Turning to `CNC(=O)c1cc(COc2cnc(Nc3cnn(C4C[C@@H](C)N[C@@H](C)C4)c3)nc2)c(F)c(OC)c1` (some centres unmarked) [Compound 202], the pIC50 in test [1] was 7.82; in test [2], 8.22; in test [3], 8.15.
Taken in the same sequence, the figures for `CCn1cnc(Nc2ncc(CCc3cc(C(=O)NC)cc(OC)c3F)cn2)c1` [Compound 28] were 6.44, 6.61 and 6.46.
Regarding `CCN1CCN(c2ccc(Nc3ncc(CCc4cc(C(=O)NC5CC5)cc5occc45)cn3)cc2)CC1` [Compound 7], the pIC50 was 6.84 in test [1], 6.77 in test [2] and 6.23 in test [3].
`CNC(=O)c1cc(CCc2cnc(Nc3cnn([C@H]4CCNC4)c3)nc2)c(F)c(OC)c1` [Compound 162]: the values for the pIC50 in test [1], in test [2] and in test [3] were 7.77, 8.00 and 7.85, respectively.
`CCOc1cc(CCc2cnc(Nc3ccc(N4CCN(CC)CC4)cc3)nc2)cc(C(=O)NOC)c1` [Compound 51]: the results for the pIC50 in test [1], in test [2] and in test [3] were 6.99, 6.95 and 6.76, respectively.
On the same counts, the results for `CNC(=O)c1cc(CCc2cnc(Nc3cnn(C4CNC4)c3)nc2)c(F)c(OC)c1` [Compound 160] are 7.82, 8.00 and 7.80.
Taken in the same sequence, the figures for `CNC(=O)c1cc(CCc2cnc(Nc3ccn4cnnc4c3)nc2)c(F)c(OC)c1` [Compound 68] were 7.51, 7.89 and 7.60.
On the same counts, the results for `CCN1CCN(c2ccc(Nc3ncc(CCc4cc(OC)cc(C(=O)NOC(C)C)c4)cn3)cc2)CC1` [Compound 58] are 6.49, 6.91 and 6.29.
For the molecule `CNC(=O)c1cc(CCc2cnc(Nc3cc[n+]([O-])c(C)c3)nc2)c(F)c(OC)c1` [Compound 78, 4-((5-(2-fluoro-3-methoxy-5-(methylcarbamoyl)phenethyl)pyrimidin-2-yl)amino)-2-methylpyridine 1-oxide], the pIC50 in test [1] was 7.36; in test [2], 7.74; in test [3] it was 7.51.
Regarding `C#Cc1ccc(Nc2ncc(OCc3cc(C(=O)NC)cc(OC)c3F)cn2)cc1` [Compound 210], the pIC50 in test [1] was 6.92; in test [2] it was 7.57; in test [3] it was 6.16.
For `CCN1CCN(c2ccc(Nc3ncc(CCc4cc(C(=O)NOC)cc5c4CCO5)cn3)cc2)CC1` [Compound 6], the figures for the pIC50 in test [1] and in test [2] were 6.04 and 6.01, respectively.
For `CNC(=O)c1cc(CCc2cnc(Nc3ccn4c(C)nnc4c3)nc2)c(F)c(OC)c1` [Compound 70], the pIC50 in test [1] was 7.57; in test [2], 7.80; in test [3] it was 7.66.
Taken in the same sequence, the figures for `CNC(=O)c1cc(CCc2cnc(Nc3ccc(CC(=O)O)cc3)nc2)c(F)c(OC)c1` [Compound 206] were 7.42, 7.89 and 7.68.
Turning to `CNC(=O)c1cc(CCc2cnc(Nc3cnn(C4CCNCC4)c3)nc2)c(F)c(OC)c1` [Compound 164], the pIC50 in test [1], in test [2] and in test [3] was 8.10 each time.
As to `CNC(=O)c1cc(CCc2cnc(Nc3ccn4c(COC)nnc4c3)nc2)c(F)c(OC)c1` [Compound 73], the pIC50 is 7.47 in test [1], 7.96 in test [2] and 7.40 in test [3].
With `CNC(=O)c1cc(CCc2cnc(Nc3c(C)nn(C)c3C)nc2)c(F)c(OC)c1` [Compound 109], the results for the pIC50 in test [1], in test [2] and in test [3] were 6.42, 6.56 and 6.51, respectively.
On the same counts, the results for `CNC(=O)c1cc(COc2cnc(Nc3ccc(CC(=O)O)cc3)nc2)c(F)c(OC)c1` [Compound 207] are 7.35, 7.80 and 7.54.
On the same counts, the results for `CNC(=O)c1cc(CCc2cnc(Nc3ccc(N4C[C@@H](C)N[C@@H](C)C4)nc3)nc2)c(Cl)c(OC)c1` [Compound 214] are 8.00, 7.96 and 7.77.
`CNC(=O)c1cc(CCc2cnc(Nc3cccc(N4C[C@@H](C)N[C@@H](C)C4)c3)nc2)cc(OC)c1` [Compound 12]: the negative logarithm of the IC50 (pIC50) in test [1] was 7.01; in test [2], 7.60; in test [3] it was 6.89.
On the same counts, the results for `CNC(=O)c1cc(CCc2cnc(Nc3cnn(CC(=O)N4CCN(C)CC4)c3)nc2)c(F)c(OC)c1` [Compound 144] are 7.89, 8.22 and 7.80.
On the same counts, the results for `CNC(=O)c1cc(CCc2cnc(Nc3cnn([C@@H]4CCNC4)c3)nc2)c(F)c(OC)c1` [Compound 161] are 7.77, 8.05 and 7.92.
With `CCN1CCN(c2ccc(Nc3ncc(CCc4cc(C(=O)NC)cc5occc45)cn3)cc2)CC1` [Compound 4], the figures for the pIC50 in test [1], in test [2] and in test [3] were 6.70, 6.63 and 6.10, respectively.
On the same counts, the results for `CNC(=O)c1cc(COc2cnc(Nc3ccc(N4C[C@@H](C)N[C@@H](C)C4)c(F)c3)nc2)c(Cl)c(OC)c1` [Compound 220] are 8.00, 8.40 and 8.00.

Values taken from patent US20160052926A1, “NOVEL PYRIMIDINE AND PYRIDINE COMPOUNDS AND USAGE THEREOF” (HUTCHISON MEDIPHARMA LIMITED, priority 2013, published 2016).
